The values that follow come from publication PMC10510382, “Discovery of a First-in-Class Degrader for the Lipid Kinase PIKfyve” (Journal of Medicinal Chemistry, 2023).

One experiment addresses T1, von Hippel–Lindau (VHL) (Homo sapiens, UniProt P40337).
T1 construct: with PIKfyve
As to the kind of experiment: VHL-dependent degradation in VCaP cells: blocked by VL285; inactive hydroxy isomer […]dN does not degrade. The class given is cell-based.

The target in the next experiment is T2, PIKfyve (Homo sapiens, UniProt Q9Y2I7).
T2 construct: with VHL
As to the kind of experiment: PROTAC degradation by immunoblot in VCaP cells (DC50), blocked by warhead […] and VL285; TMT proteomics. The class given is cell-based.

By DC50 is commonly meant the concentration at which degradation of the target reaches its halfway point. A lower DC50 goes with a more potent degrader.

T2 sequence (Q9Y2I7 2-2098): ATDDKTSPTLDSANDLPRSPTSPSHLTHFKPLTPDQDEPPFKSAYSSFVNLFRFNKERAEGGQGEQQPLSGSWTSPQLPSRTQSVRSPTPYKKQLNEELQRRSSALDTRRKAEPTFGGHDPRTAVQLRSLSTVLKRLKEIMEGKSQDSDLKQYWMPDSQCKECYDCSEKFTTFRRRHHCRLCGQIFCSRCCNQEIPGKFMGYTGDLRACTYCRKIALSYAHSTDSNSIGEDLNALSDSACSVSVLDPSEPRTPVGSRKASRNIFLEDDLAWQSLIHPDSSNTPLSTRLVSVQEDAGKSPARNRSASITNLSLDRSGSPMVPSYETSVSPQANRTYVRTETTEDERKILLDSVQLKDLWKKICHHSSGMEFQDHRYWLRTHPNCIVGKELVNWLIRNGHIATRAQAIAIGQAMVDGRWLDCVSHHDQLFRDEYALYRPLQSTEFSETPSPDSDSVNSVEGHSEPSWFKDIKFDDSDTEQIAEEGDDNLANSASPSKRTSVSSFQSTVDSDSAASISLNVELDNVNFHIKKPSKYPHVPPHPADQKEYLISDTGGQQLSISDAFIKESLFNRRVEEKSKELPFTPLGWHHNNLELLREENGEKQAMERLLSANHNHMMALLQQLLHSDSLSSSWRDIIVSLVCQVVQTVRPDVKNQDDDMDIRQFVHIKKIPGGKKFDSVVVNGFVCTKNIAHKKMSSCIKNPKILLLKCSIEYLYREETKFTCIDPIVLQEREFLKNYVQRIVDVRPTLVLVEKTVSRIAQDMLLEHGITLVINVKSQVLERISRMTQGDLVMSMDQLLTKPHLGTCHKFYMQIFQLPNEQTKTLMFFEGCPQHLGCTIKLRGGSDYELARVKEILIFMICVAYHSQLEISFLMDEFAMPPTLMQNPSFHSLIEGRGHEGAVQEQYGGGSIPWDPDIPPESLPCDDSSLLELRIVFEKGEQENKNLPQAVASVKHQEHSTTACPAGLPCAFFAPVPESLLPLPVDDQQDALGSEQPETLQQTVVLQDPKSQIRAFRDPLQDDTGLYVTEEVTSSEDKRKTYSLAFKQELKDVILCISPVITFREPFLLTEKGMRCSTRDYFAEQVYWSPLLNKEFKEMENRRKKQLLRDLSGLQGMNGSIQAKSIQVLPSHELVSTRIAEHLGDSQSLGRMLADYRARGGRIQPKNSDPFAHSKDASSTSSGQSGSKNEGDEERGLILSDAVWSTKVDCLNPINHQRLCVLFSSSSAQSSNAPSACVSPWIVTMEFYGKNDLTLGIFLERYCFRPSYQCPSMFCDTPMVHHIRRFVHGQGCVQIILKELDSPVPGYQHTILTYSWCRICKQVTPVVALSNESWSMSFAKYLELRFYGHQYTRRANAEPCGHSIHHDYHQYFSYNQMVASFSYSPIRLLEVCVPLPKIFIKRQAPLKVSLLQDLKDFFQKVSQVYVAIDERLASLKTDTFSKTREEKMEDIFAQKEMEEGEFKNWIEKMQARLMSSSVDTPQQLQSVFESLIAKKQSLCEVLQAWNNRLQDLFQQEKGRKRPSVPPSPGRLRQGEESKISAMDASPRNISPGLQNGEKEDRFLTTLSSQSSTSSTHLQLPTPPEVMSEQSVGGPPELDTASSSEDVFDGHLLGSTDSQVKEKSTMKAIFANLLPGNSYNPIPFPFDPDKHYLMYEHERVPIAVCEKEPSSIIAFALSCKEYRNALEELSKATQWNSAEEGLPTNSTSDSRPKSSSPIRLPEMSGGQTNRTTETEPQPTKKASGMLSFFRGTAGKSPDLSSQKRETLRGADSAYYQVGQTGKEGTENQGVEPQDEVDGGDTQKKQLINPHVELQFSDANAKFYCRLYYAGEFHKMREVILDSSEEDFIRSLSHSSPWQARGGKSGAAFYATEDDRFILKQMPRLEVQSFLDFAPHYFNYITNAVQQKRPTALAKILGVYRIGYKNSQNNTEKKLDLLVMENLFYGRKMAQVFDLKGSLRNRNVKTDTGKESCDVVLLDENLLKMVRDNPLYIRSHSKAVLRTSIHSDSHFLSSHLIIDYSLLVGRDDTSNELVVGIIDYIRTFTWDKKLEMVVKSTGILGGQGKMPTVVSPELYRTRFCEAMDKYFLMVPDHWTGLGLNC
T1 sequence (P40337 whole entry): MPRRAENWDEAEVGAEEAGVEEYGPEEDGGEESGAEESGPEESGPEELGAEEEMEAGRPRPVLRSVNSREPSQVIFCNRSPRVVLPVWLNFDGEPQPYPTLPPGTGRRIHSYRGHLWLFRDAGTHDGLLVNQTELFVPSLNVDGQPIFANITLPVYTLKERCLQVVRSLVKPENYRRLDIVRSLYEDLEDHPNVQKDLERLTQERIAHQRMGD
T1 sequence (Q9Y2I7 2-2098 partner): as the sequence (Q9Y2I7 2-2098) above

For `Cc1cccc(/C=N/Nc2cc(N3CCOCC3)nc(OCCc3ccc(NC(=O)CCCCC(=O)N[C@H](C(=O)N4C[C@H](O)C[C@H]4C(=O)NCc4ccc(-c5scnc5C)cc4)C(C)(C)C)cc3)n2)c1` [12d, N^1-((S)-1-((2S,4R)-4-Hydroxy-2-((4-(4-methylthiazol-5-yl)benzyl)carbamoyl)pyrrolidin-1-yl)-3,3-dimethyl-1-oxobutan-2-yl)-N^6-(4-(2-((4-(2-((E)-3-methylbenzylidene)hydrazineyl)-6-morpholinopyrimidin-2-yl)oxy)ethyl)phenyl)adipamide], on von Hippel–Lindau (VHL), the “VHL-dependent degradation in VCaP cells: blocked by VL285; inactive hydroxy isom” value is “PIK5-12d induced PIKfyve degradation in a VHL- and proteasome-dependent manner”. Further, on PIKfyve, it took 1.48 nM to reach half-maximal degradation (DC50).
